The record followed here is patent publication EP0354323A2, “Antidiabetic phosphates” (AMERICAN CYANAMID COMPANY, priority 1988, dated 1990).

Structures can show the parent of a compound that is named as a salt. Where two headings read alike, the source gives them in different places. A value given as a limit tells only on which side of the number the result lay.

Holding throughout (assay type): biochemical
The target in assay [1] is T1, purified rat liver 6-phosphofructo-1-kinase (Rattus norvegicus, UniProt P30835).
T1 construct: 0.1U of purified rat liver 6-phosphofructo-1-kinase; from tissue; host or cells: rat liver
T1 sequence (P30835 2-780 limits assumed): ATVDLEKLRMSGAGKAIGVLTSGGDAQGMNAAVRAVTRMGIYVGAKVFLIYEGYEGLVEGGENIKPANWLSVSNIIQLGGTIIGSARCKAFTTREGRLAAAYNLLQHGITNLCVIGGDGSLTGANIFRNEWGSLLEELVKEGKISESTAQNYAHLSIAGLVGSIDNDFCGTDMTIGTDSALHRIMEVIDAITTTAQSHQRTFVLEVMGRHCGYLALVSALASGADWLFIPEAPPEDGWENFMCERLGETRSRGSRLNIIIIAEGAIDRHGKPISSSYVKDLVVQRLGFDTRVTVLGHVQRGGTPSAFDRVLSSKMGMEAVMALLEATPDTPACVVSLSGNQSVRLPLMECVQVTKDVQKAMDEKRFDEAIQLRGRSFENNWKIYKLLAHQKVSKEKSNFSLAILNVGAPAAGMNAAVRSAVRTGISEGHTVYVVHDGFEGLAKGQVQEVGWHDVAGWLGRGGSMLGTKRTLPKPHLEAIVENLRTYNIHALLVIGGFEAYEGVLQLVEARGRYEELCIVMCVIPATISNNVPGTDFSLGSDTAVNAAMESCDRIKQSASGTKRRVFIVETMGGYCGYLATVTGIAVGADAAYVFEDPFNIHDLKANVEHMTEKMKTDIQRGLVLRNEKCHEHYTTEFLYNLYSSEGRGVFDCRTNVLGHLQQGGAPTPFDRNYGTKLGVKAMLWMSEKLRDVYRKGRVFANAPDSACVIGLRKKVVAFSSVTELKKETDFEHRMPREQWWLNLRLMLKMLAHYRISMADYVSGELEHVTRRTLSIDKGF
Kind of assay: Stimulation of 6-phosphofructo-1-kinase (PFK), aldolase-coupled spectrophotometric assay. Particulars: stimulation of enzyme; pH 7.3, 30°C, 1 mM ATP, reaction initiated with 0.2 mM fructose-6-phosphate; read-out: PFK ED₅₀. The procedure:
(§1) The novel compounds of this invention were tested for their ability to stimulate the enzyme 6-phosphofructo-1-kinase ("PFK") and for their ability to inhibit the enzyme fructose-1,6-bisphosphatase ("FBP") using the procedures described below.
Effects on the activity of PFK were determined using an aldolase-coupled, spectrophotometric assay. The assay mixture contained: 50 mM N-tris(hydroxymethyl)methyl-2-aminoethanesulfonic acid, hydrochloride ("TES-HCl", pH 7.3); 1mM ethylenediaminetetraacetic acid ("EDTA"); 6 mM magnesium chloride; 2.5 mM dithiothreitol; 0.165 mM nicotinamide adenine dinucleotide ("NADH"); 1mM adenosine triphosphate ("ATP"); 0.04U aldolase; 0.4U triose phosphate isomerase; 1.5U alpha-glycerolphosphate dehydrogenase; 0.1U of purified rat liver 6-phosphofructo-1-kinase; and various concentrations of the test compound, all in a final volume of 1 ml. The mixture was preincubated for 3 minutes at 30°C and then the reaction was initiated with 0.2 mM fructose-6-phosphate. The rate of decrease in absorbance at 340 nm was measured at 30°C with a recording spectrophotometer.

The target of a further assay is T2, purified rat liver FBP (Rattus norvegicus, UniProt P19112).
T2 construct: 0.02U of purified rat liver FBP; from tissue; host or cells: rat liver
T2 sequence (P19112 2-363 limits assumed): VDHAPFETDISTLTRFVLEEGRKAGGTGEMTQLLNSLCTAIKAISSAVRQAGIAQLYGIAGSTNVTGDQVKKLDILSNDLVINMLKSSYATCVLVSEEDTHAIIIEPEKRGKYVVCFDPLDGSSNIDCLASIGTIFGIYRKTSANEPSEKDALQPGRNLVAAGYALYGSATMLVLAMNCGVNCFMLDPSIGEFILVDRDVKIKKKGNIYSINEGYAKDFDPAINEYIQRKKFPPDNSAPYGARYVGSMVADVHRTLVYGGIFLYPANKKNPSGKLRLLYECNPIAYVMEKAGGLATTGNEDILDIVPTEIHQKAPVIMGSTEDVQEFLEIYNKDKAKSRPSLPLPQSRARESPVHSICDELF
Kind of assay: Inhibition of fructose-1,6-bisphosphatase (FBP), spectrophotometric assay. The procedure:
as §1
Effects on the activity of FBP were determined using a spectrophotometric assay. The assay mixture contained: 100 mM tris(hydroxymethyl)aminomethane, hydrochloride ("TRIS-HCl", pH 7.4); 2.5 mM beta-mercaptoethanol; 2 mM magnesium chloride; 0.05 mM EDTA; 0.2 mM nicotinamide adenine dinucleotide phosphate ("NADP"); 10 U phosphoglucose isomerase; 5 U glucose-6-phosphate dehydrogenase; 0.02U of purified rat liver FBP; and various concentrations of the test compound, all in a final volume of 1 ml. The mixture was preincubated for 3 minutes at 30°C and then the reaction was initiated with 0.02 mM fructose-1,6-bisphosphate. The rate of increase in absorbance at 340 nm was measured at 30°C with a recording spectrophotometer.

The target in assay [2] is T3, partially purified potato tuber 6-phosphofructo-1-kinase (Solanum tuberosum, UniProt P21342+P21343).
T3 construct: 0.1U of partially purified potato tuber; from tissue; host or cells: potato tuber
T3 sequence (P21343 1-569): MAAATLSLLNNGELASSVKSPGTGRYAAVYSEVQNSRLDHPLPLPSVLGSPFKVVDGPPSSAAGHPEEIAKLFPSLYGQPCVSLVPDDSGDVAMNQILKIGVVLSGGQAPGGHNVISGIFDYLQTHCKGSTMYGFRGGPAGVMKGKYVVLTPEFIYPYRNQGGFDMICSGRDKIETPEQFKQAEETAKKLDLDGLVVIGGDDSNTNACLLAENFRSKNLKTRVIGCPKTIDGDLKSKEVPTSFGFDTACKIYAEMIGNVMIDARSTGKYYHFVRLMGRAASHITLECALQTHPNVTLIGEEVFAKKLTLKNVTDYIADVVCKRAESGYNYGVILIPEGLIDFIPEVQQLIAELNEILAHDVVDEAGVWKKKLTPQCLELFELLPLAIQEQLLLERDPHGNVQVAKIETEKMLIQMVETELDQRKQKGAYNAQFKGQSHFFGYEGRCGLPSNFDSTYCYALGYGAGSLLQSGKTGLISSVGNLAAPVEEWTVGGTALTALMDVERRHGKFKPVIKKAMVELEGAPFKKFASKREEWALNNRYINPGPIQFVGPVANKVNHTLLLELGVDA
T3 sequence (P21342 1-616): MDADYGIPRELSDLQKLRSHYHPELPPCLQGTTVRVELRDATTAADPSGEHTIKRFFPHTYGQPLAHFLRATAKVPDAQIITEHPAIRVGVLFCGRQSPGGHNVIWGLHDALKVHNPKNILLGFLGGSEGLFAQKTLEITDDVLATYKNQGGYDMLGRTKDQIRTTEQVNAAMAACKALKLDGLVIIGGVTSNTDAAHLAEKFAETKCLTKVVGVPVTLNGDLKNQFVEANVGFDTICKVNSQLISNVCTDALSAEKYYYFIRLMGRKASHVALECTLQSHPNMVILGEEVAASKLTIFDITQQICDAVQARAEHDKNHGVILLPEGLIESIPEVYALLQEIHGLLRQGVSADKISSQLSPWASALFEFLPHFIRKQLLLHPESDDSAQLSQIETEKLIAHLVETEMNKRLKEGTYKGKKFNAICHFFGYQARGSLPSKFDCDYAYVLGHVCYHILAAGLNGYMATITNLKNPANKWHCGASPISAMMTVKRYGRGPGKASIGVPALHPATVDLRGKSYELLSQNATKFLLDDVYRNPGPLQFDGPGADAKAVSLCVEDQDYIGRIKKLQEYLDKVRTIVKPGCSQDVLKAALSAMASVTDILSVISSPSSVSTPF
Kind of assay: Stimulation of pyrophosphate-dependent 6-phosphofructo-1-kinase (PPi-PFK), aldolase-coupled spectrophotometric assay. The following applies: stimulation of enzyme; pH 8.0, 30°C, 1 mM fructose-6-phosphate, reaction initiated with 0.5 mM sodium pyrophosphate; read-out: PPi-PFK ED₅₀. The procedure: The novel compounds of this invention were also tested for their ability to stimulate the enzyme pyrophosphate-dependent 6-phosphofructo-1-kinase ("PPi-PFK"), a growth regulator in plants, using the procedures described below.
Effects on the activity of PPi-PFK were determined using an aldolase-coupled, spectrophotometric assay. The assay mixture contained: 50 mM N-tris(hydroxymethyl)methyl-2-aminoethanesulfonic acid, hydrochloride ("TES-HCl", pH 8.0); 1mM ethylenediaminetetraacetic acid ("EDTA"); 6 mM magnesium chloride; 2.5 mM dithiothreitol; 0.165 mM nicotinamide adenine dinucleotide ("NADH"); 1mM fructose-6-phosphate; 0.04U aldolase; 0.4U triose phosphate isomerase; 1.5U alpha-glycerolphosphate dehydrogenase; 0.1U of partially purified potato tuber 6-phosphofructo-1-kinase; and various concentrations of the test compound, all in a final volume of 1 ml. The mixture was preincubated for 3 minutes at 30°C and then the reaction was initiated with 0.5 mM sodium pyrophosphate. The rate of decrease in absorbance at 340 nm was measured at 30°C with a recording spectrophotometer.

[3] abbreviates: inhibition of enzyme, pH 7.4, 30°C, reaction initiated with 0.02 mM fructose-1,6-bisphosphate, read-out: FBP IC₅₀.

Consider `O=P(O)(O)OC[C@H]1O[C@](OP(=O)(O)O)(C(F)F)[C@@H](O)[C@@H]1O` [1-Deoxy-1,1-difluoro-D-fructofuranose, 2,6-bis (dihydrogen phosphate), β-anomer, disodium salt], for which the EC50 in assay [1] came out at 0.15 µM. Besides, the IC50 on purified rat liver FBP (setting [3]) was more than 800 µM. The matching figures for `O=P(O)(O)OC[C@H]1O[C@@](OP(=O)(O)O)(C(F)F)[C@@H](O)[C@@H]1O` [1-Deoxy-1,1-difluoro-D-fructofuranose, 2,6-bis(dihydrogen phosphate), α-anomer, disodium salt]: 0.05 µM and more than 800 µM. Take `O=P(O)(O)OC[C@H]1O[C@@](OP(=O)(O)O)(C(F)F)[C@@H](O)[C@@H]1O` [1-Deoxy-1,1-difluoro-D-fructofuranose, 2,6-bis(dihydrogen phosphate), α-anomer, tetrasodium salt]: in assay [2], the EC50 was 15 µM. Turning to `O=P(O)(O)OC[C@H]1O[C@](OP(=O)(O)O)(C(F)F)[C@@H](O)[C@@H]1O` [1-Deoxy-1,1-difluoro-D-fructofuranose, 2,6-bis(dihydrogen phosphate), β-anomer, tetrasodium salt], in assay [2], the EC50 came out at 0.3 µM. In the case of `O=P(O)(O)OC[C@H]1OC(O)(C(F)F)[C@@H](O)[C@@H]1O` (stereo partly drawn) [1-Deoxy-1,1-difluoro-D-fructofuranose, 6-(dihydrogen phosphate), sodium salt], the EC50 in assay [1] was 300 µM; in assay [2] it was 1000 µM. Besides, the IC50 on purified rat liver FBP (setting [3]) worked out at 450 µM. Turning to `O=P(O)(O)OC[C@H]1O[C@@](CO)(COP(=O)(O)O)[C@@H](O)[C@@H]1O` [2,5-Anhydro-2-C-(hydroxymethyl)-D-glucitol, 1,6-bis(dihydrogen phosphate)], the EC50 in assay [1] came out at 6.3 µM; in assay [2] it was 0.4 µM. For the molecule `O=P(O)(O)OC[C@H]1O[C@](CO)(COP(=O)(O)O)[C@@H](O)[C@@H]1O` [2,5-Anhydro-2-C-[(phosphonooxy)methyl]-D-glucitol, 6-(dihydrogen phosphate)], the EC50 in assay [1] was 2 µM; in assay [2], 6.6 µM. Take `O=P(O)(O)OC[C@@H]1O[C@H](COP(=O)(O)O)[C@@H](O)[C@@H]1O` [2,5-Anhydro-D-glucitol, 1,6-bis(dihydrogen phosphate)]: in assay [1], the EC50 came out at 2.2 µM. Moreover, on purified rat liver FBP (setting [3]), the IC50 came to 32 µM. Turning to `O=P(O)(O)OC[C@@H](O)[C@H]1O[C@H](COP(=O)(O)O)[C@@H](O)[C@@H]1O` [2,5-Anhydro-D-glycero-D-manno-heptitol, 1,7-bis(dihydrogen phosphate)], the EC50 in assay [1] was 2.1 µM.

For the molecule `O=P(O)(O)OC[C@H]1O[C@H](COP(=O)(O)O)[C@@H](O)[C@@H]1O` [2,5-Anhydro-D-mannitol, 1,6-bis(dihydrogen phosphate)], in assay [1], the EC50 came to 0.26 µM. Besides, the IC50 against purified rat liver FBP was 2 µM. Regarding `O=P(O)(O)OCC[C@@]1(CO)O[C@H](COP(=O)(O)O)[C@@H](O)[C@@H]1O` [3,6-Anhydro-2-deoxy-3-C-(hydroxymethyl)-D-manno-hepitol, 1,7-bis(dihydrogen phosphate)], the EC50 in assay [1] worked out at 7.2 µM. On purified rat liver FBP (setting [3]), the IC50 is 100 µM.

With `O=P(O)(O)OCC[C@@H]1O[C@H](COP(=O)(O)O)[C@@H](O)[C@@H]1O` [3,6-Anhydro-2-deoxy-D-gluco-heptitol, 1,7-bis(dihydrogen phosphate)], in assay [1], the EC50 was 4 µM. Moreover, the IC50 at purified rat liver FBP (setting [3]) worked out at 230 µM. As to `O=P(O)(O)OCC[C@H]1O[C@H](COP(=O)(O)O)[C@@H](O)[C@@H]1O` [3,6-Anhydro-2-deoxy-D-manno-heptitol, 1,7-bis(dihydrogen phosphate)], the EC50 in assay [1] stood at 0.56 µM. For the same molecule, on purified rat liver FBP (setting [3]), the IC50 stood at 50 µM. For the molecule `O=P(O)(O)OCCCC1O[C@H](COP(=O)(O)O)[C@@H](O)[C@@H]1O` (stereo partly drawn) [4,7-Anhydro-2,3-dideoxy-D-gluco-octitol, 1,8-bis(dihydrogen phosphate), and 4,7-Anhydro-2,3-dideoxy-D-manno-octitol, 1,8-bis(dihydrogen phosphate)], the EC50 in assay [1] came out at 12 µM. `O=P(O)(O)OC[C@H]1O[C@@](CO)(OP(=O)(O)O)[C@@H](O)[C@@H]1O` [Beta-D-fructose-2,6-bisphosphate, reference compound]: the EC50 was found to be 0.02 µM in assay [1] and 0.004 µM in assay [2]. Also, the IC50 at purified rat liver FBP (setting [3]) was 3 µM.
